From article PMC4402242 (Chemico-biological interactions, 2014)
“And” between values parts separate entries of the source, which are not always exact repeats. Equal entries are not always repeated. Where two headings read alike, the source gives them in different places. Marks after values point to notes of the source that are not given here. Values belong to the compound of their own block, whether it stands above or below them.

Tests used:
[1] = test system: isolated renal cortical cells (IRCC); experiment: LDH release from isolated renal cortical cells; conditions: for Effect of pretreatment on 4-A2CP cytotoxicity: pretreatment concentration and time per Table 1; for LDH (% Release) Pretreatment: pretreatment compound alone, plus 4-A2CP vehicle; for LDH (% Release) Pretreatment / direct nephrotoxic potential of the aminophenols in decreasing order / LDH (% Release) 4-A2CP: 1 h; for LDH (% Release) Pretreatment / LDH (% Release) 4-A2CP: mean ± S.E.; for direct nephrotoxic potential of the aminophenols in decreasing order / Cytotoxicity (LDH release) in words / LDH (% Release) 4-A2CP: IRCC; for direct nephrotoxic potential of the aminophenols in decreasing order: 0.5 and 1.0 mM; for Cytotoxicity (LDH release) in words: aminophenol 0.5 mM, 1 h (Fig. 2); for LDH (% Release) 4-A2CP: % of total LDH
[2] = test system: Fischer 344 rat renal cortical slices; conditions: cited from earlier work
[3] = test system: peroxidase; conditions: cited from earlier work
[4] = test system: Sprague-Dawley rat hepatocytes; conditions: cited from earlier work
[5] = test system: rat renal proximal tubules; conditions: rat renal proximal tubules with hepatic subcellular fractions; cited from earlier work
[6] = test system: isolated renal cortical cells (IRCC)
[7] = test system: LLC-PK1 cells; conditions: cited from earlier work

SMILES: CC(=O)N[C@@H](CS)C(=O)O [N-Acetyl-L-cysteine]
Effect of pretreatment on 4-A2CP cytotoxicity ([1]; 4-A2CP 1.0 mM): partially attenuated

LDH (% Release) Pretreatment ([1]; 1.0 mM): 18.6 ± 0.7% and 20.7 ± 0.9%
SMILES: NNC(=O)c1ccncc1 [Isoniazid]
Effect of pretreatment on 4-A2CP cytotoxicity ([1]; 4-A2CP 0.5 and 1.0 mM): No alteration

SMILES: Nc1cc(Cl)c(O)c(Cl)c1 [4-A2,6DCP, 4-amino-2,6-dichlorophenol]
direct nephrotoxic potential of the aminophenols in decreasing order [1]: 4-A2,6DCP > 4-A2CP > 4-AP > 4-A3CP | Cytotoxicity (LDH release) in words [1]: marked cytotoxicity was observed

SMILES: N[C@@H](CCC(=O)N[C@@H](CS)C(=O)NCC(=O)O)C(=O)O [Glutathione]
Effect of pretreatment on 4-A2CP cytotoxicity ([1]; 4-A2CP 1.0 mM): completely attenuated

SMILES: Cc1c(C)c2c(c(C)c1O)CC[C@@](C)(CCC[C@H](C)CCC[C@H](C)CCCC(C)C)O2 [α-Tocopherol]
Effect on 4-A2,6-DCP cytotoxicity [2]: unable to attenuate

SMILES: O=C1O[C@H]([C@@H](O)CO)C(O)=C1O [Ascorbate]
Effect of pretreatment on 4-A2CP cytotoxicity ([1]; 4-A2CP 0.5 and 1.0 mM): attenuated

SMILES: Nc1ccc(O)cc1Cl [4-A3CP, 4-amino-3-chlorophenol]
direct nephrotoxic potential of the aminophenols in decreasing order [1]: 4-A2,6DCP > 4-A2CP > 4-AP > 4-A3CP | Cytotoxicity (LDH release) in words [1]: Cytotoxicity was not observed

SMILES: CCCCOCCOCCOCc1cc2c(cc1CCC)OCO2 [Piperonyl butoxide]
peroxidase inhibitor properties [3]: has peroxidase inhibitor properties | Effect of pretreatment on 4-A2CP cytotoxicity ([1]; 4-A2CP 0.5 and 1.0 mM): attenuated | LDH (% Release) Pretreatment ([1]; 1.0 mM): 19.1 ± 2.5% and 25.0 ± 1.0%

LDH (% Release) Pretreatment ([1]; 1.0 mM): 22.0 ± 0.5% and 19.7 ± 2.2%
SMILES: Cn1cc[nH]c1=S [Methimazole]

LDH (% Release) Pretreatment ([1]; 1.0 mM): 21.3 ± 0.6% and 20.6 ± 0.9%
SMILES: CC(C)(C(=O)c1cccnc1)c1cccnc1 [Metyrapone]
peroxidase inhibitor properties [3]: but not metyrapone | Effect of pretreatment on 4-A2CP cytotoxicity ([1]; 4-A2CP 0.5 mM): potentiated | Effect of pretreatment on 4-A2CP cytotoxicity ([1]; 4-A2CP 1.0 mM): no potentiation or attenuation

SMILES: Nn1nnc2ccccc21 [1-aminobenzotriazole]
Effect on 4-AP metabolism [4]: did not alter | Effect on 4-AP nephrotoxicity [5]: did not alter

LDH (% Release) Pretreatment ([1]; 0.2 mM): 27.5 ± 1.1% and 20.0 ± 0.9%
SMILES: CCCCCCCCN [N-Octylamine]
Effect of pretreatment on 4-A2CP cytotoxicity ([1]; 4-A2CP 0.5 and 1.0 mM): No alteration

SMILES: Nc1ccc(O)c(Cl)c1 [4-A2CP, 4-amino-2-chlorophenol]
LDH (% Release) 4-A2CP ([1]; 4-A2CP 0.5 mM alone): 33.0 ± 2.7 ^b % and 52.0 ± 2.5 ^b % and 39.5 ± 0.6 ^b % and 43.0 ± 1.4 ^b % and 38.3 ± 4.9 ^b % and 43.5 ± 3.2 ^b % | LDH (% Release) 4-A2CP ([1]; 4-A2CP 1.0 mM alone): 42.6 ± 0.6 ^b % and 54.4 ± 2.3 ^b % and 51.3 ± 3.2 ^b % and 51.4 ± 4.9 ^b % and 53.9 ± 6.5 ^b % and 49.9 ± 4.3 ^b % | direct nephrotoxic potential of the aminophenols in decreasing order [1]: 4-A2,6DCP > 4-A2CP > 4-AP > 4-A3CP | Cytotoxicity (LDH release) in words [1]: marked cytotoxicity was observed

SMILES: O=C(O)CC(S)C(=O)O (stereo not shown) [Mercaptosuccinate, mercaptosuccinic acid]
Effect of pretreatment on 4-A2CP cytotoxicity [6]: attenuated

SMILES: Cc1cc(C(C)(C)C)c(O)c(C(C)(C)C)c1 [BHT, butylated hydroxytoluene]
Effect on 4-AP cytotoxicity [7]: did not prevent

SMILES: c1ccc(Nc2ccc(Nc3ccccc3)cc2)cc1 [DPPD, N,N’-diphenyl-p-phenylenediamine]
Effect on 4-A2,6-DCP cytotoxicity [2]: unable to attenuate | Effect of pretreatment on 4-A2CP cytotoxicity [6]: did not reduce

LDH (% Release) Pretreatment ([1]; 0.1 mM): 22.4 ± 0.9% and 26.1 ± 1.7%
SMILES: CC(=O)N1CCN(c2ccc(OCC3COC(Cn4ccnc4)(c4ccc(Cl)cc4Cl)O3)cc2)CC1 (stereo not shown) [Ketoconazole]
